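1) Cells in 96-well plates. 2) Compound, 48 h, 5 concentrations. 3) Linear interpolation between surrounding doses. 4) Unreached endpoint = highest concentration. TGI: total growth inhibition.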
Key:
Test in all cases: NCI tumour cell line growth inhibition, 48 h
[1] = system: 786-0 renal
[2] = system: ACHN renal
[3] = system: CAKI-1 renal
[4] = system: EKVX NSCLC
[5] = system: HCC-2998 colon
[6] = system: HL-60(TB) leukemia
[7] = system: HT29 colon
[8] = system: M14 melanoma
[9] = system: MALME-3M melanoma
[10] = system: MCF7 breast
[11] = system: MDA-MB-231 breast
[12] = system: OVCAR-4 ovarian
[13] = system: RPMI-8226 leukemia
[14] = system: SF-295 CNS
[15] = system: SK-MEL-2 melanoma
[16] = system: SK-OV-3 ovarian
[17] = system: U251 CNS
[18] = system: UACC-257 melanoma
[19] = system: UACC-62 melanoma

Structure (SMILES) | TGI [1] [µM] | TGI [2] [µM] | TGI [3] [µM] | TGI [4] [µM] | TGI [5] [µM] | TGI [6] [µM] | TGI [7] [µM] | TGI [8] [µM] | TGI [9] [µM] | TGI [10] [µM] | TGI [11] [µM] | TGI [12] [µM] | TGI [13] [µM] | TGI [14] [µM] | TGI [15] [µM] | TGI [16] [µM] | TGI [17] [µM] | TGI [18] [µM] | TGI [19] [µM]
CN1N=C(c2ccccc2)C(C(c2ccccc2[N+](=O)[O-])C2C(=O)N(C)N=C2c2ccccc2)C1=O (configuration not stated) | > 100 | > 100 | > 100 | > 100 | > 100 | 52 | > 100 | > 100 | > 100 | > 100 | > 100 | > 100 | > 100 | > 100 | > 100 | > 100 | > 100 | > 100 | > 100
CC(=O)C1(C)CC(C#N)(C#N)C(C#N)=C1N (configuration not stated) | > 100 | > 100 | > 100 | 85.2 | > 100 | > 100 | > 100 | > 100 | > 100 | > 100 | > 100 | > 100 | > 100 | > 100 | > 100 | > 100 | > 100 | > 100 | > 100
CCCCC(/C=C\COC1CCCCO1)=C/C(=O)OCC (configuration not stated) | > 100 | > 100 | > 100 | > 100 | > 100 | 67.5 | > 100 | > 100 | > 100 | > 100 | > 100 | > 100 | > 100 | > 100 | > 100 | > 100 | > 100 | > 100 | > 100
CCN(CC)c1ccc2cc(C(=O)NCc3ccccc3)c(=N)oc2c1 | > 100 | > 100 | > 100 | > 100 | > 100 | > 100 | 36 | > 100 | 63.6 | > 100 | 97 | > 100 | > 59.7 | > 100 | > 100 | > 100 | > 100 | > 100 | > 100
CCN(CC)C(=S)SC1C(=O)NC(=O)NC1=O | > 100 | > 100 | > 100 | > 100 | > 100 | > 100 | > 100 |  | > 100 | > 100 | > 100 | > 100 | > 100 | > 100 | > 100 | > 100 | > 100 | > 100 | > 100
CC1(C)S[C@H](CN)N[C@H]1C(=O)OC(c1ccccc1)c1ccccc1 | > 100 | > 100 | > 100 | > 100 | 36 | 35.7 | > 100 | > 100 | 83.8 | > 100 | > 100 | > 100 | 54.2 | > 100 | 93.3 | > 100 | > 100 | 40.5 | 81.4
COc1ccc(NC(=O)CC(=O)NNC(Sc2ccccc2)c2cc(N=Nc3ccc(Br)cc3)ccc2O)cc1 (configuration not stated) | > 10 | > 10 | > 10 | > 10 | > 10 | > 10 | > 10 | > 10 | > 10 | > 10 | > 10 | > 10 | > 10 | > 10 | > 10 | > 10 | > 10 | > 10 | > 10
COc1cc(/C=N/c2ccccn2)cc(OC)c1OC | > 100 | > 100 | > 100 | > 100 | > 100 | > 100 | > 100 | > 100 | > 100 | > 100 | > 100 | > 100 | > 100 | > 100 | > 100 | > 100 | > 100 | > 100 | > 100
Cc1cc(S(=O)(=O)Nc2n[nH]c(Nc3ccc4ccccc4c3)n2)c(S)cc1Cl | > 100 | > 100 | 91 | > 100 | > 100 | > 100 | > 100 | > 100 | > 100 | > 100 | > 100 | > 100 | > 100 | 76.9 | 73.7 | > 100 | > 100 | > 100 | > 100
CC(C)[Si]1(C(C)C)OCC2OC(n3c(C(=O)c4ccccc4)cc(=O)[nH]c3=O)CC2O[Si](C(C)C)(C(C)C)O1 (configuration not stated) | 9.87 | 8.58 | 17.9 | 14.6 | 3.41 | > 28.6 | 4.22 | 14.4 | 13.1 | 8.14 | 5.67 | 8.36 | > 23.3 | 13.8 | 10.6 | 27.2 | 9.85 | 6.04 | 7.62
NC(=O)NNCc1c(-c2ccccc2)no[n+]1[O-] | > 100 | > 100 | > 100 | > 100 | > 100 | > 100 | > 100 | > 100 | > 100 | > 100 | > 100 | > 100 | > 100 | > 100 | > 100 | > 100 | > 100 | > 100 | > 100
COc1cc(C2c3[nH]c4ccccc4c3[C@@H](Nc3ccc(C#N)cc3)[C@H]3COC(=O)N23)cc(OC)c1O (some centres not stated) | 0.337 | 0.621 | 1.78 | 4.32 | 0.704 | 0.165 | > 10 | 1.58 | 1.2 | 2.7 | 2.14 | 4.4 | 0.688 | 0.734 | 0.752 | 1.04 | 1.32 | 3.29 | 0.651

Source: PubChem BioAssay (NCI)
